Literature values as cited in patent US9066953B2, “Methods for increasing endurance and fat metabolism in humans” (Quality IP Holdings, LLC, priority 2012, dated 2015).

Legend:
hGH = conditions: for effect on hGH: other amino acids, literature
GH = conditions: subcutaneous injection of 0.06 IU, GH deficient subjects

CSCC[C@H](N)C(=O)O [methionine]
effect on hGH (hGH): marked increases in hGH

NCCC[C@H](N)C(=O)O [ornithine]
effect on hGH (hGH): marked increases in hGH

N[C@@H](Cc1c[nH]cn1)C(=O)O [histidine]
effect on hGH (hGH): marked increases in hGH

N=C(N)NCCC[C@H](N)C(=O)O [arginine]
elevation of serum hGH levels (hGH; 30 g intravenous, in males): 8.6 fold | increase of hGH levels (hGH; intravenous infusion of 183 mg/kg body weight in females): > 20 fold

NCCCC[C@H](N)C(=O)O [lysine]
effect on hGH (hGH): marked increases in hGH

HGH: injected human growth hormone used in the treatment of GH deficient subjects
mean levels of GH reached (GH): 0.4 ng/mL

N[C@@H](Cc1ccccc1)C(=O)O [phenylalanine]
effect on hGH (hGH): marked increases in hGH
